From ChEMBL document CHEMBL1201862, “PubChem BioAssay data set” (2004)
The source made the active and inactive calls.

Key:
[1] = target: fMet-Leu-Phe receptor (Homo sapiens, UniProt P21462); assay: FPR ligands, dose response (AID 519); type: functional
[2] = target: Disintegrin and metalloproteinase domain-containing protein 17 (Homo sapiens, UniProt P78536); assay: ADAM17 protease inhibitors, dose response, counter-screen for ADAM10 exosite inhibitor project, biochemical, quenched FRET substrate (AID 743253)
[3] = ADAM10 inhibitors, peptide cleavage, dose response, biochemical, QFRET (AID 743254);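 also: ADAM10 enzyme with the DM2 quenched FRET peptide as substrate; EDANS fluorescence gain as the protease cuts the substrate; inhibitor potency against ADAM10 proteolytic activity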
[4] = target: T1, Scavenger receptor class B member 1 (Mus musculus, UniProt Q61009); assay: inhibitors of SR-BI-mediated HDL uptake, dose response, cell-based, ldlA[mSR-BI] CHO, DiI fluorescence, dry powder, set 10 (AID 624029); type: functional
T1 sequence (Q61009 whole entry): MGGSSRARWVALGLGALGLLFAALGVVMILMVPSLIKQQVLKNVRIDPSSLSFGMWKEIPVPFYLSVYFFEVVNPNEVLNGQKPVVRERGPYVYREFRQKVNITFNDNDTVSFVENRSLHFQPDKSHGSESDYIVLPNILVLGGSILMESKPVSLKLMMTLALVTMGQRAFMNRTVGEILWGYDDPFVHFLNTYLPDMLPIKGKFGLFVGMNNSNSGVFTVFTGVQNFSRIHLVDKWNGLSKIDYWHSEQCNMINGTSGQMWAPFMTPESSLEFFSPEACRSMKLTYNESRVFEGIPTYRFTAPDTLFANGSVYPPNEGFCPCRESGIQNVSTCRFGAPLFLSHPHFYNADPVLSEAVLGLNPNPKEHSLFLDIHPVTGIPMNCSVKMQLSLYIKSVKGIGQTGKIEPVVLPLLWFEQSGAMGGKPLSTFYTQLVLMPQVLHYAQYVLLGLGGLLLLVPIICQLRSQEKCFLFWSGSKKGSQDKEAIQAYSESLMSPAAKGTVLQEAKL

[5] = target: T2, Corticotropin-releasing factor receptor 2/Corticotropin-releasing factor-binding protein (Homo sapiens, UniProt P24387+Q13324); assay: activators of CRF receptor 2 with binding protein – uHTS hits, confirmation (AID 602473); type: functional; conditions: read-out: EC50_Mean
T2 sequence (Q13324 whole entry): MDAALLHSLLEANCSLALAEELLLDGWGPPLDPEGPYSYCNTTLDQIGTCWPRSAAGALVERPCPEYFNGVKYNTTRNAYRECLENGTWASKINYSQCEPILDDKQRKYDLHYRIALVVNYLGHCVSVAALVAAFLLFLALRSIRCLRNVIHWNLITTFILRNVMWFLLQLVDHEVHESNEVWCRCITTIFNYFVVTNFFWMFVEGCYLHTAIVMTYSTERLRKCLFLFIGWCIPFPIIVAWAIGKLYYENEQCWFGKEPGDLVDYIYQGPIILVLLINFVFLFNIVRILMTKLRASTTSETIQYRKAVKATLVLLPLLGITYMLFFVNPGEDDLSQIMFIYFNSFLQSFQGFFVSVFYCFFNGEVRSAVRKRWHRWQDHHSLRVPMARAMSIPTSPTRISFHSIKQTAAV
T2 sequence (P24387 whole entry): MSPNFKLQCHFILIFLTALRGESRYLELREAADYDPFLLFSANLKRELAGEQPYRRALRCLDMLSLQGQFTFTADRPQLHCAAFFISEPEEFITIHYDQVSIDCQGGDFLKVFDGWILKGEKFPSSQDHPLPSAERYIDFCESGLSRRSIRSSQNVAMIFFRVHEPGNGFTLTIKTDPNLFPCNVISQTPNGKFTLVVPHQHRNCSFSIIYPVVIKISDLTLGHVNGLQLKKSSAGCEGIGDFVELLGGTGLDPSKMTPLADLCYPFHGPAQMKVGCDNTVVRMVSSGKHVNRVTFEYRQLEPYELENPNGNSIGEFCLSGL

[6] = target: T1, Scavenger receptor class B member 1; assay: inhibitors of SR-BI dependent HDL uptake, dose response, ldlA[mSR-BI] CHO cells, fluorescence plate reader, dry powder, set 9 (AID 623880); type: functional, cell-based
[7] = target: Cytochrome P450 3A4 (Homo sapiens, UniProt P08684);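 also: CYP3A4 tested as one member of a cytochrome P450 panel screen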
[8] = target: Cytochrome P450 2C9 (Homo sapiens, UniProt P11712)
[9] = target: NAD-dependent protein deacylase sirtuin-5, mitochondrial (Homo sapiens, UniProt Q9NXA8); assay: SIRT5 desuccinylase inhibitors, dose response, biochemical, fluorescence imaging, cherry-pick, set 5 (AID 720591);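 also: desuccinylation of succinyl peptide AMC substrate read as fluorescence after trypsin release; potency of inhibitors that lower fluorescence and may act on trypsin instead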
[10] = cells; type: functional, cell-based
[11] = target: T3, Trace amine-associated receptor 1 (Homo sapiens, UniProt Q96RJ0); assay: Counterscreen for agonists of the human trace amine associated receptor 1 (hTAAR1): Fluorescence-based cell-based high throughput dose response assay to identify hTAAR1 agonist that also desensitize TAAR1 receptor response.; type: functional
T3 sequence (Q96RJ0 whole entry): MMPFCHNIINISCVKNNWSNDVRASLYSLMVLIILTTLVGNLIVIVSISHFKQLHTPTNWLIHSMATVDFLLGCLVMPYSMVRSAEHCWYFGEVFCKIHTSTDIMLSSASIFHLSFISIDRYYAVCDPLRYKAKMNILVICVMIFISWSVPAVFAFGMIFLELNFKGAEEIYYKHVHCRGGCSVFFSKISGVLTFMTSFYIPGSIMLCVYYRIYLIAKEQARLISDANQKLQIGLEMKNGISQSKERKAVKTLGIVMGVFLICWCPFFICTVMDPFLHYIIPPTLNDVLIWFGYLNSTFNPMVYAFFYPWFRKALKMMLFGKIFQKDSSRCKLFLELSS

[12] = target: T3, Trace amine-associated receptor 1; assay: Fluorescence-based cell-based high throughput dose response assay to identify agonists of the human trace amine associated receptor 1 (TAAR1).; type: functional
[13] = cells; type: functional, cell-based; remark: listed apart in the source
[14] = inhibitors of PGC1a acetylation in cells, dose response, cell-based, cherry-picked samples (AID 720514); type: functional;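 also: potency may reflect raised or lowered acetylation signal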
[15] = Luminescence Cell-Based Dose Retest to Confirm Inhibitors of Cancer Stem Cells. [Related pubchem assays (depositor defined):AID2717, AID2721]; type: functional; conditions: Homo sapiens
[16] = LGR2 antagonists, dose response, cell-based, HEK293, CRE-luciferase reporter, cherry pick, set 2 (AID 743343); type: functional;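 also: transfected cells were stimulated with diluted bursicon conditioned medium after compound addition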
[17] = MC4R antagonists, dose response, counter-screen for LGR2 antagonist project, cell-based, plate reader, cherry pick (AID 743444); type: functional;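 also: transfected HEK 293 cells stimulated with alpha-MSH peptide; potency of inhibitors of the alpha-MSH evoked signal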
[18] = HEK293 cell cytotoxicity, dose response, cytotoxicity control, plate reader, cherry-picked samples (AID 743446); type: functional, cell-based
[19] = A549 cell cytotoxicity, dose response, cytotoxicity control, plate reader, cherry-pick, antagonist series (AID 743412); type: functional, cell-based
[20] = Fluorescence-based cell-based high throughput dose response assay for inhibitors of the interaction of nucleotide-binding oligomerization domain containing 2 (NOD2) and the receptor-interacting serine-threonine kinase 2 (RIPK2).; type: functional; conditions: Homo sapiens
[21] = HepG2 cell cytotoxicity, dose response, cytotoxicity control, plate reader, cherry-pick, antagonist series (AID 743416); type: functional, cell-based
[22] = target: Paired box protein Pax-8 (Homo sapiens, UniProt Q06710); assay: inhibitors of PAX8-driven TPO luciferase reporter, dose response, RMG-I cells, cherry-pick (AID 687027); type: functional, cell-based;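 also: luciferase reporter driven by Pax8 target thyroperoxidase promoter measured by SteadyGlo luminescence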
[23] = target: Fructose-bisphosphate aldolase (Mycobacterium tuberculosis, UniProt P9WQA3); assay: Fluorescence-based biochemical high throughput dose response assay for inhibitors of the fructose-bisphosphate aldolase (FBA) of M. tuberculosis.; type: functional
[24] = non-specific cell cytotoxicity, dose response, cytotoxicity control for PAX8 inhibitor project, plate reader, dry powder samples (AID 743021); type: functional, cell-based

Chain of Paired box protein Pax-8 (Q06710 whole entry): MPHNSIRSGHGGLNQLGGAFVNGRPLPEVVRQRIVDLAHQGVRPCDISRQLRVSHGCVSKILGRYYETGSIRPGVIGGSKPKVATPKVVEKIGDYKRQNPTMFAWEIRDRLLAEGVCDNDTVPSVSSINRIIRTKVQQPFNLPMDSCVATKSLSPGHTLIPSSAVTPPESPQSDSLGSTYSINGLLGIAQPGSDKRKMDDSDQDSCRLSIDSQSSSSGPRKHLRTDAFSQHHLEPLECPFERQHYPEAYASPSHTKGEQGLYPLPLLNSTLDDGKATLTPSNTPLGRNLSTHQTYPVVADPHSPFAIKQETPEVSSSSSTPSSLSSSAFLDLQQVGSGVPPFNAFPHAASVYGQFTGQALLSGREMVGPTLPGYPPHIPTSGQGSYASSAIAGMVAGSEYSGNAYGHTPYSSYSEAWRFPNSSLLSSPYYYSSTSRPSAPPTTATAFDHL
Chain of Disintegrin and metalloproteinase domain-containing protein 17 (P78536 whole entry, the tested form may be a part): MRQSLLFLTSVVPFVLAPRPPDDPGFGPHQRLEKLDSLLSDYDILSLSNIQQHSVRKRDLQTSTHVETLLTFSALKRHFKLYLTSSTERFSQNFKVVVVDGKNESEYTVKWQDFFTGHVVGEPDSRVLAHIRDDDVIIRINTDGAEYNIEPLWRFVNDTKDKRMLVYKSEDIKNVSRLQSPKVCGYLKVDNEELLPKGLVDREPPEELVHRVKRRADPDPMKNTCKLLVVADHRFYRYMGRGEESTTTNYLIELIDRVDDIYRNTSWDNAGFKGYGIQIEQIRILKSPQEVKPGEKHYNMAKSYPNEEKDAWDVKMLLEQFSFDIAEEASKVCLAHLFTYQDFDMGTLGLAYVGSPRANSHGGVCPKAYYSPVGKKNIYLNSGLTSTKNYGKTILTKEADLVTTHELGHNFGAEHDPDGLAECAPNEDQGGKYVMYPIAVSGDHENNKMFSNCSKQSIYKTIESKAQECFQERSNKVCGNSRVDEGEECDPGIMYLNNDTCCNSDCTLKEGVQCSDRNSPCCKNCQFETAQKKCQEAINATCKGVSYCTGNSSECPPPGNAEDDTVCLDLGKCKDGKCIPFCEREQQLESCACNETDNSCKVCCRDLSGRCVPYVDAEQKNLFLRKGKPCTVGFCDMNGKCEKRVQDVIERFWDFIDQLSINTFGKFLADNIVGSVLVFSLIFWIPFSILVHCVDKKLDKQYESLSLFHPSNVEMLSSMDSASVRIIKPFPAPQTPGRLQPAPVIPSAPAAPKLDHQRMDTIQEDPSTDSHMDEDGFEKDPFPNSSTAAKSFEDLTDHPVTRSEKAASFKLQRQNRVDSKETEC
Chain of fMet-Leu-Phe receptor (P21462 whole entry, the tested form may be a part): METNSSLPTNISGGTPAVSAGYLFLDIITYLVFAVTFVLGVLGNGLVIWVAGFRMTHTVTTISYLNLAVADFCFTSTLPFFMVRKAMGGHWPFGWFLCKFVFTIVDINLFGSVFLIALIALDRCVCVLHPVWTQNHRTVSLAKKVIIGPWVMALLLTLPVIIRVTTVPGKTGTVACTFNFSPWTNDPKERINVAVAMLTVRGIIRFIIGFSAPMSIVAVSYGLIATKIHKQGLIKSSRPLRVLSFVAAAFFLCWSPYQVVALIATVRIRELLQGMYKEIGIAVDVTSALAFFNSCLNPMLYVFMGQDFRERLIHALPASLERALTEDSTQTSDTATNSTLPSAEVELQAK
Chain of Cytochrome P450 3A4 (P08684 whole entry): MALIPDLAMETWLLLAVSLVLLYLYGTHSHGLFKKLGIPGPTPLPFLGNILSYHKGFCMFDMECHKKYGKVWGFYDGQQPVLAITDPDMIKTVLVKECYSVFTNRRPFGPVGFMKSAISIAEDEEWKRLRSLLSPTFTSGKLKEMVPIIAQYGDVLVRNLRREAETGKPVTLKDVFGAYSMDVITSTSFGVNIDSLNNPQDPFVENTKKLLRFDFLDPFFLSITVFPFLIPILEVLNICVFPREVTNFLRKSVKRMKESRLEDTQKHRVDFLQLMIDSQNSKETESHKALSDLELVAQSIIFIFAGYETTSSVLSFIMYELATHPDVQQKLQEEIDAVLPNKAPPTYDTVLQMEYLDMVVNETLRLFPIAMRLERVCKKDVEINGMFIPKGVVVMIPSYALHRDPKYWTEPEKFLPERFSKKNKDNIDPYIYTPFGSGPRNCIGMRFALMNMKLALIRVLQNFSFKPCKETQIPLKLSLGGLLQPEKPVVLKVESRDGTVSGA
Chain of Fructose-bisphosphate aldolase (P9WQA3 whole entry): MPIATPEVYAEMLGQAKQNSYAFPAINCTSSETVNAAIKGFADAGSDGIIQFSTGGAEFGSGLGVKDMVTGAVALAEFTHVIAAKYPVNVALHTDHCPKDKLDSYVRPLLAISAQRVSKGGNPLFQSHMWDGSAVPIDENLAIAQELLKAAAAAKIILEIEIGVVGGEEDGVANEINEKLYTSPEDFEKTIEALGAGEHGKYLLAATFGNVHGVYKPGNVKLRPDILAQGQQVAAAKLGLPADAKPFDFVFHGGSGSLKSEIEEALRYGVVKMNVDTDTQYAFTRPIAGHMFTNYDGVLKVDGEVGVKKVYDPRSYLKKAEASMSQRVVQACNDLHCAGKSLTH
Chain of Cytochrome P450 2C9 (P11712 whole entry): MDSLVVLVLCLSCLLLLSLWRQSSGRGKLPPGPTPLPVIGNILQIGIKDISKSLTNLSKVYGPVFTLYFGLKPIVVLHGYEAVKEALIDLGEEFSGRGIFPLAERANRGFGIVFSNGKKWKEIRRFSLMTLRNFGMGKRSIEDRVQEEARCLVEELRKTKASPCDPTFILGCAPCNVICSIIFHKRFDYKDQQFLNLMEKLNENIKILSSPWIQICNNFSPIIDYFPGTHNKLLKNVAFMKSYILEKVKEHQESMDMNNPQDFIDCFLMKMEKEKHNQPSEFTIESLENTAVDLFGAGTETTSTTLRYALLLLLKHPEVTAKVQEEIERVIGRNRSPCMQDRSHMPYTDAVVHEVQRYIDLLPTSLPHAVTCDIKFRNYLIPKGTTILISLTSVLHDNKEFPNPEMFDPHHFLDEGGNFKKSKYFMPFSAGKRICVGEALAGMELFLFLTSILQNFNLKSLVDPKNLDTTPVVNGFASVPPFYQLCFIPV
Chain of NAD-dependent protein deacylase sirtuin-5, mitochondrial (Q9NXA8 whole entry): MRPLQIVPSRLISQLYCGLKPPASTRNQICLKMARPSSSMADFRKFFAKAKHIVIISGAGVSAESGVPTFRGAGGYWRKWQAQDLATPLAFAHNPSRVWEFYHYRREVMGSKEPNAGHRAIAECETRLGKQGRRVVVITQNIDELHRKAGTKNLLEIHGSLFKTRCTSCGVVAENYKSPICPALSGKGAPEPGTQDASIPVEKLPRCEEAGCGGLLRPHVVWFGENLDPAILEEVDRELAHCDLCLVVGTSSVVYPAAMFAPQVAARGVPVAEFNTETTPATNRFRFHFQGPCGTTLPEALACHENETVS

In the case of `CCOc1ccc(C2C(C(=O)c3ccco3)=C(O)C(=O)N2CCCn2ccnc2)cc1` (centres undefined), the Ki [1] was 9.9 µM (active).

In the case of `O=C(C1CCC(Cn2c(=S)[nH]c3ccccc3c2=O)CC1)N1CCN(c2ccccc2)CC1` (centres undefined), the IC50 [2] was > 69.5 µM (inactive) and the IC50 [3] was > 69.5 µM (inactive).

For `O=C1C2C3C=CC(C3)C2C(=O)N1c1cccc(N2C(=O)C3C4C=CC(C4)C3C2=O)n1` (centres undefined), the AC50 [4] was > 70 µM (inactive), the EC50 [5] was > 53 µM (inactive) and the AC50 [6] was 45.2 µM (active).

In the case of `CCOc1cccc(C(=O)C2=C(O)C(=O)N(Cc3ccco3)C2c2ccncc2)c1` (centres undefined), the AC50 [7] was 22.4 µM (inconclusive), the Ki [1] was > 66.7 µM (inactive) and the AC50 [8] was 14.1 µM (inconclusive).

With `COc1ccccc1N1CCN(C(C)C(=O)N2CC(C)OC(C)C2)CC1` (centres undefined) the AC50 [9] was > 30 µM (inactive).

For `Cc1cccc(CCNCc2cc3ccc(C)cc3nc2O)c1`, the IC50 [10] was > 29.9 µM (inactive), the IC50 [11] was 7.79 µM (active) and the EC50 [12] was 3.44 µM (active). For the same compound, the EC50 [13] was 24.9 µM (inactive).

In the case of `O=C(Cn1ncc(Cl)c(Cl)c1=O)NC(=O)NC1CCCCC1`, the AC50 [14] was 4.83 µM (active), the AC50 [15] was 1.81 µM (active) and the AC50 [16] was 25.8 µM (active). For the same compound, the AC50 [17] was 26.2 µM (active), the AC50 [18] was 7.89 µM (active) and the AC50 [19] was 7.17 µM (active). The IC50 [20] was 3.13 µM (active), the AC50 [21] was 7.9 µM (active) and the AC50 [22] was 2.85 µM (active).

In the case of `O=C(c1ccccc1)c1ccc(OCC(O)CN2CCOCC2)cc1` (centres undefined), the IC50 [23] was > 9.99 µM (inactive).

For `COc1ccc(NC(=O)Cn2nnc(-c3ccccc3)c2COc2ccc3ccccc3c2)cn1`, the IC50 [2] was > 69.5 µM (inactive) and the IC50 [3] was > 7.72 µM (active).

For `CC(C)CN1CCN(C(=O)COC(=O)c2ccc(S(C)(=O)=O)c([N+](=O)[O-])c2)CC1`, the AC50 [14] was 10.6 µM (active), the AC50 [24] was 22.7 µM (active) and the AC50 [22] was 13 µM (active).
